Where two headings read alike, the source gives them in different places.
Tests used:
[1] = molecular target: T1, DNA-dependent protein kinase (DNA-PK) (Homo sapiens, UniProt P78527); assay: kinobeads assay, DNA-PK; format: binding; details: kinobeads assay
T1 construct: endogenous in cells; host or cells: Jurkat, clone E6-1 (ATCC TIB-152) cell lysate
Protocol: (§1) The compounds of the present invention as described were tested in the mTOR kinobeads assay as described below. Briefly, test compounds (at various concentrations) and the affinity matrix with the immobilized phenylmorpholin-chromen ligand (8-(4-aminomethyl-phenyl)-2-morpholin-4-yl-chromen-4-one) were added to cell lysate aliquots and allowed to bind to the proteins in the lysate sample. After the incubation time the beads with captured proteins were separated from the lysate. Bound proteins were then eluted and the presence of mTOR, PI3K delta (PI3 Kd) and DNA-dependent protein kinase (DNA-PK) was detected and quantified using a specific antibody in a dot blot procedure and the Odyssey infrared detection system. Kinobeads assays for PI3K (WO-A 2008/015013) and for kinase selectivity profiling (WO 2006/134056) have been previously described.
(§2) The kinobeads assay was performed as a competitive binding assay in which test compounds were added directly into a cell lysate. Test compounds (at various concentrations) and the affinity matrix (beads with immobilized phenylmorpholin-chromen ligand) were added to cell lysate aliquots and allowed to bind to the proteins contained in the lysate sample. After the incubation time the beads with captured proteins were separated from the lysate. Bound proteins were then eluted and the presence of kinases was detected and quantified using a multiplexed immunodetection format. Dose response curves for individual kinases were generated and IC50 values calculated.
(§3) The affinity matrix (beads with immobilized phenylmorpholin-chromen ligand) was washed two times with 15 ml of 1×DP buffer containing 0.2% NP40 (IGEPAL® CA-630, Sigma, #13021) and then resupended in 5.5 ml of 1×DP buffer containing 0.2% NP40 (10% beads slurry).
(§4) 5×DP buffer: 250 mM Tris-HCl pH 7.4, 25% Glycerol, 7.5 mM MgCl2, 750 mM NaCl, 5 mM Na3VO4, filter the 5×-lysis buffer through 0.22 μm filter and store in aliquots at −80° C. The 5×DP buffer is diluted to 1×DP buffer containing 1 mM DTT and 25 mM NaF.
(§5) Stock solutions of test compounds were prepared in DMSO. In a 96 well plate 30 μl solution of diluted test compounds at 5 mM in DMSO were prepared. Starting with this solution a 1:3 dilution series (9 steps) was prepared. For control experiments (no test compound) a buffer containing 2% DMSO was used. Compound CZC00018052 served as a positive control (PI-103; Calbiochem catalogue number 528100).
(§6) Jurkat cells (ATCC catalogue number TIB-152 Jurkat, clone E6-1) were grown in 1 liter Spinner flasks (Integra Biosciences, #182101) in suspension in RPMI 1640 medium (Invitrogen, #21875-034) supplemented with 10% Fetal Bovine Serum (Invitrogen) at a density between 0.15×10^6 and 1.2×10^6 cells/ml. Cells were harvested by centrifugation, washed once with 1×PBS buffer (Invitrogen, #14190-094) and cell pellets were frozen in liquid nitrogen and subsequently stored at −80° C.
(§7) Jurkat cells were homogenized in a Potter S homogenizer in lysis buffer: 50 mM Tris-HCl, 0.8% NP40, 5% glycerol, 150 mM NaCl, 1.5 mM MgCl2, 25 mM NaF, 1 mM sodium vanadate, 1 mM DTT, pH 7.5. One complete EDTA-free tablet (protease inhibitor cocktail, Roche Diagnostics, 1873580) per 25 ml buffer was added. The material was dounced 10 times using a mechanized POTTER S, transferred to 50 ml falcon tubes, incubated for 30 minutes on ice and spun down for 10 min at 20,000 g at 4° C. (10,000 rpm in Sorvall SLA600, precooled). The supernatant was transferred to an ultracentrifuge (UZ)-polycarbonate tube (Beckmann, 355654) and spun for 1 hour at 100.000 g at 4° C. (33.500 rpm in Ti50.2, precooled). The supernatant was transferred again to a fresh 50 ml falcon tube, the protein concentration was determined by a Bradford assay (BioRad) and samples containing 50 mg of protein per aliquot were prepared. The samples were immediately used for experiments or frozen in liquid nitrogen and stored frozen at −80° C. […]

[2] = molecular target: T2, mTOR (Homo sapiens, UniProt P42345); assay: mTOR kinobeads assay (competitive binding in Jurkat cell lysate, immunodetection); details: kinobeads assay
T2 construct: endogenous in cells; host or cells: Jurkat, clone E6-1 (ATCC TIB-152) cell lysate
Protocol: The compounds of the present invention as described were tested in the mTOR kinobeads assay as described below. […] After the incubation time the beads with captured proteins were separated from the lysate. Bound proteins were then eluted and the presence of mTOR, PI3K delta (PI3 Kd) and DNA-dependent protein kinase (DNA-PK) was detected and quantified using a specific antibody in a dot blot procedure and the Odyssey infrared detection system.
as §2, §4
as §5, with “used.” for “used. Compound CZC00018052 served as a positive control (PI-103; Calbiochem catalogue number 528100).”
Jurkat cells were homogenized in a Potter S homogenizer in lysis buffer: 50 mM Tris-HCl, 0.8% NP40, 5% glycerol, 150 mM NaCl, 1.5 mM MgCl2, 25 mM NaF, 1 mM sodium vanadate, 1 mM DTT, pH 7.5. […] The material was dounced 10 times using a mechanized POTTER S, transferred to 50 ml falcon tubes, incubated for 30 minutes on ice and spun down for 10 min at 20,000 g at 4° C. (10,000 rpm in Sorvall SLA600, precooled). […] (33.500 rpm in Ti50.2, precooled). The supernatant was transferred again to a fresh 50 ml falcon tube, the protein concentration was determined by a Bradford assay (BioRad) and samples containing 50 mg of protein per aliquot were prepared. The samples were immediately used for experiments or frozen in liquid nitrogen and stored frozen at −80° C.
Jurkat cell lysate (approximately 50 mg protein per plate) was thawed in a water bath at room temperature and then kept on ice. […] The diluted cell lysate was stored on ice.
Plates were sealed and incubated for two hours in a cold room on a Thermoxer with shaking (750 rpm). Afterwards the plate was washed twice with 230 μl washing buffer (1×DP 0.4% NP40). […] The eluate was frozen quickly at −80° C. and stored at −20° C.
The kinases in the eluates were detected and quantified by spotting on Nitrocellulose membranes and using a first antibody directed against the kinase of interest and a fluorescently labeled secondary antibody (anti-mouse or anti-rabbit IRDye™ antibodies from Rockland).
Afterwards the membrane was washed three times for 10 minutes with PBS buffer containing 0.1% Tween 20 at room temperature. […] Afterwards the membrane was washed three times for 10 minutes each with 1×PBS buffer containing 0.1% Tween 20 at room temperature. Then the membrane was rinsed once with PBS buffer to remove residual Tween 20. The membrane was kept in PBS buffer at 4° C. and then scanned with the Odyssey instrument. Fluorescence signals were recorded and analysed according to the instructions of the manufacturer.

[3] = molecular target: T3, PI3K delta (PI3 Kd) (Homo sapiens, UniProt O00329); assay: kinobeads assay, PI3K delta; format: binding; details: kinobeads assay, read-out: Inhibition values (IC50) PI3Kd
T3 construct: endogenous in cells; host or cells: Jurkat, clone E6-1 (ATCC TIB-152) cell lysate
T3 sequence (O00329 whole entry): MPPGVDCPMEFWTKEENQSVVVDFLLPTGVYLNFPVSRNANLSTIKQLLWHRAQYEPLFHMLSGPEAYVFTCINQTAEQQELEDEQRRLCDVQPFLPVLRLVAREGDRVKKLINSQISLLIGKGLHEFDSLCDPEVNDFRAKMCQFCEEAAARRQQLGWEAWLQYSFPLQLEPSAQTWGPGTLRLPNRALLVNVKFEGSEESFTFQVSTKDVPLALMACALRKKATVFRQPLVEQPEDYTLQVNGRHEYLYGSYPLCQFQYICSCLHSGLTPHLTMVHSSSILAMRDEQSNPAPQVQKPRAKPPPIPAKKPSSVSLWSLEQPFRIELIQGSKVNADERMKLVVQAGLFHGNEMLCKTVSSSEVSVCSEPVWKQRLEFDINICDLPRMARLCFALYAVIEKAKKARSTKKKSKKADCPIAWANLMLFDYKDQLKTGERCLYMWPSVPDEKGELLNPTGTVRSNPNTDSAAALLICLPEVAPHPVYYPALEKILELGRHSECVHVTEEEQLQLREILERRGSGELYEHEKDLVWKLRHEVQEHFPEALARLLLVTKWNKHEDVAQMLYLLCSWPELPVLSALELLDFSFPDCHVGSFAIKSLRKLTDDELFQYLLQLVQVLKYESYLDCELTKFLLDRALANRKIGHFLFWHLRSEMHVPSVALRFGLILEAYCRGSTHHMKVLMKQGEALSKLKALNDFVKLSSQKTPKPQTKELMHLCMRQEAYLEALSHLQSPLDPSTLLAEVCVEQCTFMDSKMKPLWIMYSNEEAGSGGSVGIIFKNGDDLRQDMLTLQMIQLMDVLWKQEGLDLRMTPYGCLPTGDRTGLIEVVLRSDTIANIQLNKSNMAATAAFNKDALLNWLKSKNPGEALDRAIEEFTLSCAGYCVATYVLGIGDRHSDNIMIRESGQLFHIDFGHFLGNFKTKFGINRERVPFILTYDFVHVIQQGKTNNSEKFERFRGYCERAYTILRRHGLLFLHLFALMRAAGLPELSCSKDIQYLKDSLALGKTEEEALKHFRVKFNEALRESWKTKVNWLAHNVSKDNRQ
T3 sequence (P27986 whole entry partner): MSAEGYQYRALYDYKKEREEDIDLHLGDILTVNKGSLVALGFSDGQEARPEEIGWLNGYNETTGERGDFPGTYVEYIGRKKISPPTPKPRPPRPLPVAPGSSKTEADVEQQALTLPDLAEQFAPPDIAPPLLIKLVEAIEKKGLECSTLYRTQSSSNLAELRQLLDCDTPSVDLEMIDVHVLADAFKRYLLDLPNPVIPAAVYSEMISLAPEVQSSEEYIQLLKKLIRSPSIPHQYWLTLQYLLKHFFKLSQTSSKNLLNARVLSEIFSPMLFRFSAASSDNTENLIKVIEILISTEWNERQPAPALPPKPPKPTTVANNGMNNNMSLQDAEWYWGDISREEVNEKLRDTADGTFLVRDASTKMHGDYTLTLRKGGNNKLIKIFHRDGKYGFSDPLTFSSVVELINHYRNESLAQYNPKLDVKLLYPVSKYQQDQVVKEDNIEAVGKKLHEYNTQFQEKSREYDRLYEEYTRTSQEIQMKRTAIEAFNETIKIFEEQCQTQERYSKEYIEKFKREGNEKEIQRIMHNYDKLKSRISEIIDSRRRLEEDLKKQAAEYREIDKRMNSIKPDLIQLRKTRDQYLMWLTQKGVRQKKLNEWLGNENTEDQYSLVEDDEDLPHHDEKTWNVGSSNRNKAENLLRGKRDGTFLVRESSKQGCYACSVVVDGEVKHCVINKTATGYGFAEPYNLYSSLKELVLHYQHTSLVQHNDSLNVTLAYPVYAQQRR
Protocol: as §1, §2, §3, §4, §5, §6, §7

[4] = molecular target: T4, PI3 Kgamma (PI3 Kg) (Homo sapiens, UniProt P48736); assay: kinobeads assay, PI3Kgamma; format: binding; details: kinobeads assay, Table 6; read-out: Inhibition values (IC50) PI3Kg
T4 construct: endogenous in cells; host or cells: cell lysate
T4 sequence (P48736 whole entry): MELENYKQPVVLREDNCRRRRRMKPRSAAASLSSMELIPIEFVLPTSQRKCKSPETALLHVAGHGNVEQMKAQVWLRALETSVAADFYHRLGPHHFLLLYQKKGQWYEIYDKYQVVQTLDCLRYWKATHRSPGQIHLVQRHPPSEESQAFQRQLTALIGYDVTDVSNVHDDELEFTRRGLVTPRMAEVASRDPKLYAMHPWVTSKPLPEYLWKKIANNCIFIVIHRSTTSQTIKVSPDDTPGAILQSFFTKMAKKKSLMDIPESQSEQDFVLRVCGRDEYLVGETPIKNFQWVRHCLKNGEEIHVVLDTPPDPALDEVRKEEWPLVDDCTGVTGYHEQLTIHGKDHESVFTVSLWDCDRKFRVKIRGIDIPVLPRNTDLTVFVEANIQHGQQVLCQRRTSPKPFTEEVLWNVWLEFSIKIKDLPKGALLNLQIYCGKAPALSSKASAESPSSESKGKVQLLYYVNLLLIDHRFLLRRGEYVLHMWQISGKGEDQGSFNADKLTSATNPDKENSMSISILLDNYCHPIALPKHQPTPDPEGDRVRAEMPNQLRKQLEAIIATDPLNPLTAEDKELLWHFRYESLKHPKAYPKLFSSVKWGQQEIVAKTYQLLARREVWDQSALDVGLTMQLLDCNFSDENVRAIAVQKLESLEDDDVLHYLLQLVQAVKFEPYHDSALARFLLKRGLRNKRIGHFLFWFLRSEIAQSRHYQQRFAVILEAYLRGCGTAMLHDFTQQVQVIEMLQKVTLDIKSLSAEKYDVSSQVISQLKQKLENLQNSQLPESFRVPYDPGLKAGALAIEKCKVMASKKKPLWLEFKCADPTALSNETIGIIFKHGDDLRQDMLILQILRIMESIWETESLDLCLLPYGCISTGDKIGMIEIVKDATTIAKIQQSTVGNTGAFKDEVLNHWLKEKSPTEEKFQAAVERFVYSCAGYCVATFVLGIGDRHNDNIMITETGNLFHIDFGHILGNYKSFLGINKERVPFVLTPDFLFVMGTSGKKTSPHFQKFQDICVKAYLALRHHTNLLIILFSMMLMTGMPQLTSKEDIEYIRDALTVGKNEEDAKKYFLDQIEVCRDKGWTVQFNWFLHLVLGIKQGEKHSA
Protocol: as §2
(§8) The effect of the compounds on the kinases PI3Kalpha (PI3Ka), PI3 Kbeta (PI3 Kb) and PI3 Kgamma (PI3 Kg) were tested in the kinobeads assay as described (WO-A 2009/098021).

[5] = molecular target: T5, PI3Kalpha (PI3Ka) (Homo sapiens, UniProt P42336); assay: kinobeads assay, PI3Kalpha; format: binding; details: kinobeads assay, Table 6; read-out: Inhibition values (IC50) PI3Ka
T5 construct: endogenous in cells; host or cells: cell lysate
T5 sequence (P42336 whole entry): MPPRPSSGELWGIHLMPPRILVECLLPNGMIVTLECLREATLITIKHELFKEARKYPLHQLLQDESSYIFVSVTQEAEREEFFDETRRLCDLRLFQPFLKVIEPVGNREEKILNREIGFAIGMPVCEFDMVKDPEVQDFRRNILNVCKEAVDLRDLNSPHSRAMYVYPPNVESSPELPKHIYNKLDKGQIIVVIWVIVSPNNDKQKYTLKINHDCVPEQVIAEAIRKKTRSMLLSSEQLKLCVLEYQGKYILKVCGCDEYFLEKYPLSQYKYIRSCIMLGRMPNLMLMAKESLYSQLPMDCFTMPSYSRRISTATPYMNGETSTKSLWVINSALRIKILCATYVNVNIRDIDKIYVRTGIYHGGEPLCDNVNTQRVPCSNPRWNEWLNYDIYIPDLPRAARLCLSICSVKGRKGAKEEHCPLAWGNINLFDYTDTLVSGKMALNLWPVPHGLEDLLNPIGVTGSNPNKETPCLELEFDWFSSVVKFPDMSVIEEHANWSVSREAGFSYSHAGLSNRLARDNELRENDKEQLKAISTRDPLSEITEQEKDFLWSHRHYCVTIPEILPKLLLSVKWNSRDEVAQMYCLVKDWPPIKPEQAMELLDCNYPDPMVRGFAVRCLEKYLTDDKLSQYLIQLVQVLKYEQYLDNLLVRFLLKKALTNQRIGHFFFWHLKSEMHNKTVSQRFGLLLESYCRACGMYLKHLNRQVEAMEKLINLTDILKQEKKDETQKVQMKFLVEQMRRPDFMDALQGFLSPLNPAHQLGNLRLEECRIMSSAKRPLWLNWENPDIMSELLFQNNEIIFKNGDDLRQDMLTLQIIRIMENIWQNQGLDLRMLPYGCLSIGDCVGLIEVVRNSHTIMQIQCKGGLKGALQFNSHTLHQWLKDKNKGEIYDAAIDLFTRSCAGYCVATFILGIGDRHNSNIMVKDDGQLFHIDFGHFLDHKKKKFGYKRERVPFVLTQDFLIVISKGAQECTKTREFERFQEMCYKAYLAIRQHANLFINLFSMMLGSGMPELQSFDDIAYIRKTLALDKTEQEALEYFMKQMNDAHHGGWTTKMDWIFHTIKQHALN
T5 sequence (P27986 whole entry partner): as the sequence (P27986 whole entry partner) above
Protocol: as §2, §8

[6] = Table 4, read-out: Inhibition values (IC50) DNA-PK
[7] = Table 6, read-out: Inhibition values (IC50) DNAPK
[8] = Table 4, read-out: Inhibition values (IC50) mTor
[9] = Table 6, read-out: Inhibition values (IC50) mTOR

SMILES | IC50 [1, 6] [µM] | IC50 [1, 7] [µM] | IC50 [2, 8] [µM] | IC50 [2, 9] [µM] | IC50 ([3]; Table 4) [µM] | IC50 ([3]; Table 6) [µM] | IC50 [4] [µM] | IC50 [5] [µM]
C[C@H]1COCCN1c1nc(-c2ccc(NC(=O)NC3CC3)cc2)nc2c1CNC2 [Example 3, (S)-1-cyclopropyl-3-(4-(4-(3-methylmorpholino)-6,7-dihydro-5H-pyrrolo[3,4-d]pyrimidin-2-yl)phenyl)urea] | > 10 | > 10 | < 0.1 | < 0.1 | > 10 | > 10 | – | –
CNC(=O)Nc1ccc(-c2nc3c(c(N4CCOC[C@@H]4C)n2)CNC3)cc1 [Example 4, (S)-1-methyl-3-(4-(4-(3-methylmorpholino)-6,7-dihydro-5H-pyrrolo[3,4-d]pyrimidin-2-yl)phenyl)urea] | > 10 | > 10 | < 0.1 | < 0.1 | 1 to 10 | 1 to 10 | – | –
C[C@H]1COCCN1c1nc(-c2ccc(NC(N)=O)cc2)nc2c1CN(C=O)C2 [Example 6, (S)-1-(4-(6-formyl-4-(3-methylmorpholino)-6,7-dihydro-5H-pyrrolo[3,4-d]pyrimidin-2-yl)phenyl)urea] | > 10 | > 10 | 0.1 to 1 | 0.1 to 1 | 1 to 10 | 1 to 10 | – | –
C[C@@H]1COCCN1c1nc(-c2ccc(NC(=O)NC3CC3)cc2)nc2c1CNC2 [Example 9, (R)-1-cyclopropyl-3-(4-(4-(3-methylmorpholino)-6,7-dihydro-5H-pyrrolo[3,4-d]pyrimidin-2-yl)phenyl)urea] | > 10 | > 10 | < 0.1 | < 0.1 | > 10 | > 10 | – | –
CNC(=O)Nc1ccc(-c2nc3c(c(N4CCOC[C@@H]4C)n2)CNCC3)cc1 [Example 10, (S)-1-methyl-3-(4-(4-(3-methylmorpholino)-5,6,7,8-tetrahydropyrido[4,3-d]pyrimidin-2-yl)phenyl)urea] | > 10 | > 10 | 0.1 to 1 | 0.1 to 1 | > 10 | > 10 | – | –
CCNC(=O)Nc1ccc(-c2nc3c(c(N4CCOCC4)n2)CNC3)cc1 [Example 14, 1-ethyl-3-(4-(4-morpholino-6,7-dihydro-5H-pyrrolo[3,4-d]pyrimidin-2-yl)phenyl)urea] | > 10 | > 10 | – | – | 1 to 10 | 1 to 10 | – | –
CCNC(=O)Nc1ccc(-c2nc3c(c(N4CCOC[C@@H]4C)n2)CCN(Cc2ccc(F)cc2)C3)cc1 [Example 31, (S)-1-ethyl-3-(4-(7-(4-fluorobenzyl)-4-(3-methylmorpholino)-5,6,7,8-tetrahydropyrido[3,4-d]pyrimidin-2-yl)phenyl)urea] | > 10 | > 10 | 0.1 to 1 | 1 to 10 | > 10 | > 10 | – | –
C[C@H]1COCCN1c1nc(-c2ccc(NC(=O)NC3CC3)cc2)nc2c1CN(C(=O)CCC(N)=O)C2 [Example 127, (S)-4-(2-(4-(3-cyclopropylureido)phenyl)-4-(3-methylmorpholino)-5H-pyrrolo[3,4-d]pyrimidin-6(7H)-yl)-4-oxobutanamide] | – | – | – | < 0.1 | – | > 10 | > 10 | 1 to 10

Other lines, results leading:

IC50 [1, 6] [µM] | IC50 [1, 7] [µM] | IC50 [2, 8] [µM] | IC50 [2, 9] [µM] | IC50 ([3]; Table 4) [µM] | IC50 ([3]; Table 6) [µM] | IC50 [4] [µM] | IC50 [5] [µM] | SMILES
> 10 | > 10 | < 0.1 | < 0.1 | > 10 | > 10 | – | – | CCNC(=O)Nc1ccc(-c2nc3c(c(N4CCOC[C@@H]4C)n2)CNC3)cc1 [Example 7, (S)-1-ethyl-3-(4-(4-(3-methylmorpholino)-6,7-dihydro-5H-pyrrolo[3,4-d]pyrimidin-2-yl)phenyl)urea]
> 10 | > 10 | < 0.1 | < 0.1 | – | – | – | – | C[C@H]1COCCN1c1nc(-c2ccc(NC(=O)NCCCO)cc2)nc2c1CN(C)C2 [Example 51, (S)-1-(3-hydroxypropyl)-3-(4-(6-methyl-4-(3-methylmorpholino)-6,7-dihydro-5H-pyrrolo[3,4-d]pyrimidin-2-yl)phenyl)urea]
> 10 | > 10 | 0.1 to 1 | 0.1 to 1 | – | – | – | – | COCCCNC(=O)Nc1ccc(-c2nc3c(c(N4CCOC[C@@H]4C)n2)CN(C)C3)cc1 [Example 53, (S)-1-(3-methoxypropyl)-3-(4-(6-methyl-4-(3-methylmorpholino)-6,7-dihydro-5H-pyrrolo[3,4-d]pyrimidin-2-yl)phenyl)urea]
> 10 | > 10 | 0.1 to 1 | 0.1 to 1 | – | – | 1 to 10 | – | C[C@H]1COCCN1c1nc(-c2ccc(NC(=O)NCCN(C)C)cc2)nc2c1CN(C)C2 [Example 54, (S)-1-(2-(dimethylamino)ethyl)-3-(4-(6-methyl-4-(3-methylmorpholino)-6,7-dihydro-5H-pyrrolo[3,4-d]pyrimidin-2-yl)phenyl)urea]

From patent US8785457B2 (Cellzome Limited, priority 2009, dated 2014)
